According to PubChem BioAssay AID248 (DTP/NCI, 2004):
Where “and” joins values, the source holds several entries; their conditions need not be identical. Equal entries are not always repeated. Inconclusive results and toxic doses are left out. Cut-off read from the data, not from the text of the source: active = T/C of 150% or more; inactive = T/C below 125%.

Test system: L1210 leukemia ip in BDF1 mice, survival T/C
Assay: NCI In Vivo Anticancer Drug Screen. Data for tumor model L1210 Leukemia (intraperitoneal) in B6D2F1 (BDF1) mice
Settings: endpoint: mean survival time, higher = longer survival
Procedure, shortened: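 Antitumor effect is assessed in tumor-bearing animals. Survival in the compound arm is compared with a vehicle-dosed control arm and expressed as their quotient.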

[1] = dose: 100.0 mg/kg/injection, schedule: Q01DX009 (ip), vehicle: saline
[2] = dose: 100.0 mg/kg/injection, schedule: Q04DX003 (ip), vehicle: saline
[3] = dose: 200.0 mg/kg/injection, schedule: Q01DX009 (ip), vehicle: saline
[4] = dose: 200.0 mg/kg/injection, schedule: Q04DX003 (ip), vehicle: saline
[5] = dose: 400.0 mg/kg/injection, schedule: Q01DX009 (ip), vehicle: saline
[6] = dose: 400.0 mg/kg/injection, schedule: Q04DX003 (ip), vehicle: saline
[7] = dose: 50.0 mg/kg/injection, schedule: Q01DX009 (ip), vehicle: saline with Tween-80
[8] = dose: 100.0 mg/kg/injection, schedule: Q01DX009 (ip), vehicle: saline with Tween-80
[9] = dose: 200.0 mg/kg/injection, schedule: Q01DX009 (ip), vehicle: saline with Tween-80
[10] = dose: 100.0 mg/kg/injection, schedule: Q04DX002 (ip), vehicle: Klucel (hydroxypropylcellulose) (HPC)
[11] = dose: 400.0 mg/kg/injection, schedule: Q01DX009 (ip), vehicle: saline with Tween-80

Measured: T/C

C=CCSCCC
inactive: [1] 90 % of control | [2] 96 % of control | [3] 90 % of control | [4] 104 % of control | [5] 90 % of control | [6] 91 % of control

NC(Cc1cnc(N=Nc2ccc(C(=O)O)cc2)[nH]1)C(=O)O (stereo unspecified)
inactive: [7] 100 % of control | [8] 95 % of control | [9] 103 % of control

O=C1CCCC(=O)CCC1
inactive: dose: 50.0 mg/kg/injection, schedule: Q04DX002 (ip), vehicle: saline 93 % of control | dose: 100.0 mg/kg/injection, schedule: Q04DX002 (ip), vehicle: saline 93 % of control | dose: 200.0 mg/kg/injection, schedule: Q04DX002 (ip), vehicle: saline 104 % of control

O=C(O)/C=C(\Cl)CC(=O)O
inactive: dose: 100.0 mg/kg/injection, schedule: Q01DX001 (ip), vehicle: saline 102 % of control | dose: 200.0 mg/kg/injection, schedule: Q01DX001 (ip), vehicle: saline 96 % of control

Cc1nonc1C(=O)NN
inactive: dose: 25.0 mg/kg/injection, schedule: Q04DX002 (ip), vehicle: Klucel (hydroxypropylcellulose) (HPC) 93 % of control | dose: 50.0 mg/kg/injection, schedule: Q04DX002 (ip), vehicle: Klucel (hydroxypropylcellulose) (HPC) 110 % of control | [10] 93 % of control and 101 % of control

CN(C)c1ccc(NC(=S)Nc2ccc(N(C)C)cc2)cc1
inactive: dose: 400.0 mg/kg/injection, schedule: Q01DX001 (ip), vehicle: saline with Tween-80 88 % of control

FC(F)(F)c1cccc(NC2=NCCS2)c1
inactive: [7] 91 % of control | [8] 98 % of control | dose: 100.0 mg/kg/injection, schedule: Q04DX002 (ip), vehicle: saline with Tween-80 97 % of control | dose: 200.0 mg/kg/injection, schedule: Q04DX002 (ip), vehicle: saline with Tween-80 115 % of control

c1ccc(CCc2ccncc2)cc1
inactive: [8] 87 % of control | [9] 88 % of control | [11] 86 % of control

O=C(O)c1ccccc1OCc1cc(=O)[nH]c(=O)[nH]1
inactive: [2] 95 % of control | [4] 95 % of control | [6] 98 % of control

CC=NC(C)(C)C
inactive: dose: 12.5 mg/kg/injection, schedule: Q01DX009 (ip), vehicle: saline with Tween-80 91 % of control | dose: 25.0 mg/kg/injection, schedule: Q01DX009 (ip), vehicle: saline with Tween-80 94 % of control | [7] 95 % of control and 91 % of control

COC(=O)c1cccc(Cl)c1-c1c(Cl)cccc1C(=O)OC
inactive: [10] 96 % of control | dose: 200.0 mg/kg/injection, schedule: Q04DX002 (ip), vehicle: Klucel (hydroxypropylcellulose) (HPC) 108 % of control | dose: 400.0 mg/kg/injection, schedule: Q04DX002 (ip), vehicle: Klucel (hydroxypropylcellulose) (HPC) 92 % of control

CC(=O)Nc1ccc(/C=N/NC(=O)CC2CCCCC2)cc1
inactive: [8] 88 % of control | [9] 93 % of control | [11] 100 % of control

Cc1ccc[n+](CCC(N)=O)c1
inactive: [1] 92 % of control | [2] 102 % of control | [3] 93 % of control | [4] 102 % of control | [5] 97 % of control | [6] 94 % of control

Cc1c2c(ccc3ccccc32)c[n+]2ccccc12
inactive: dose: 1.1 mg/kg/injection, schedule: Q01DX009 (ip), vehicle: saline 97 % of control | dose: 1.1 mg/kg/injection, schedule: Q03HX024 (ip), vehicle: saline 98 % of control | dose: 1.7 mg/kg/injection, schedule: Q01DX009 (ip), vehicle: saline 105 % of control | dose: 1.7 mg/kg/injection, schedule: Q03HX024 (ip), vehicle: saline 100 % of control | dose: 1.8 mg/kg/injection, schedule: Q01DX Z (ip), vehicle: methylcellulose (MC) 116 % of control | dose: 2.0 mg/kg/injection, schedule: Q01DX009 (ip), vehicle: saline 96 % of control | dose: 2.5 mg/kg/injection, schedule: Q01DX Z (ip), vehicle: carboxymethylcellulose (CMC) 105 % of control | dose: 2.6 mg/kg/injection, schedule: Q01DX009 (ip), vehicle: saline 102 % of control | dose: 2.6 mg/kg/injection, schedule: Q03HX024 (ip), vehicle: saline 108 % of control | dose: 2.7 mg/kg/injection, schedule: Q01DX Z (ip), vehicle: methylcellulose (MC) 105 % of control | dose: 3.0 mg/kg/injection, schedule: Q01DX009 (ip), vehicle: saline 108 % of control | dose: 4.0 mg/kg/injection, schedule: Q01DX009 (ip), vehicle: saline 103 % of control | dose: 4.0 mg/kg/injection, schedule: Q01DX Z (ip), vehicle: methylcellulose (MC) 107 % of control | dose: 4.0 mg/kg/injection, schedule: Q03HX024 (ip), vehicle: saline 98 % of control | dose: 4.4 mg/kg/injection, schedule: Q01DX Z (ip), vehicle: methylcellulose (MC) 119 % of control | dose: 4.5 mg/kg/injection, schedule: Q01DX009 (ip), vehicle: saline 108 % of control | dose: 5.0 mg/kg/injection, schedule: Q01DX001 (ip), vehicle: carboxymethylcellulose (CMC) 100 % of control | dose: 5.0 mg/kg/injection, schedule: Q01DX Z (ip), vehicle: carboxymethylcellulose (CMC) 119 % of control | dose: 6.0 mg/kg/injection, schedule: Q01DX009 (ip), vehicle: saline 105 % of control and 107 % of control | dose: 6.0 mg/kg/injection, schedule: Q03HX024 (ip), vehicle: saline 104 % of control and 106 % of control | dose: 6.25 mg/kg/injection, schedule: Q04DX003 (ip), vehicle: saline 104 % of control | dose: 6.6 mg/kg/injection, schedule: Q01DX Z (ip), vehicle: methylcellulose (MC) 121 % of control | dose: 9.0 mg/kg/injection, schedule: Q01DX009 (ip), vehicle: saline 107 % of control | dose: 10.0 mg/kg/injection, schedule: Q01DX001 (ip), vehicle: carboxymethylcellulose (CMC) 107 % of control | dose: 11.0 mg/kg/injection, schedule: Q01DX001 (ip), vehicle: saline 109 % of control | dose: 11.0 mg/kg/injection, schedule: Q04DX003 (ip), vehicle: saline 107 % of control | dose: 12.5 mg/kg/injection, schedule: Q04DX003 (ip), vehicle: saline 108 % of control | dose: 13.0 mg/kg/injection, schedule: Q01DX009 (ip), vehicle: saline 111 % of control | dose: 15.0 mg/kg/injection, schedule: Q01DX Z (ip), vehicle: methylcellulose (MC) 97 % of control | dose: 17.0 mg/kg/injection, schedule: Q01DX001 (ip), vehicle: saline 110 % of control | dose: 17.0 mg/kg/injection, schedule: Q04DX003 (ip), vehicle: saline 105 % of control | dose: 20.0 mg/kg/injection, schedule: Q01DX001 (ip), vehicle: carboxymethylcellulose (CMC) 105 % of control | dose: 20.0 mg/kg/injection, schedule: Q01DX009 (ip), vehicle: saline 123 % of control | dose: 26.0 mg/kg/injection, schedule: Q01DX001 (ip), vehicle: saline 107 % of control | dose: 26.0 mg/kg/injection, schedule: Q04DX003 (ip), vehicle: saline 112 % of control

CN(C)c1ccc(/C=N/NC(=O)c2ccccc2)cc1
inactive: dose: 100.0 mg/kg/injection, schedule: Q04DX003 (ip), vehicle: other 94 % of control | dose: 200.0 mg/kg/injection, schedule: Q04DX003 (ip), vehicle: other 97 % of control | dose: 400.0 mg/kg/injection, schedule: Q04DX003 (ip), vehicle: other 98 % of control
